PubChem BioAssay (NCI)
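Protocol summary: plate cells (96-well), add compound at 5 concentrations, incubate 48 h, interpolate endpoints linearly. Here, GI50 denotes the concentration required for 50% inhibition of growth. At the TGI there is no net growth.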

Tests used:
Test in all cases: NCI anticancer screen, dose series, 48 h
[1] = system: ACHN renal
[2] = system: SR leukemia
[3] = system: SF-268 CNS
[4] = system: OVCAR-5 ovarian
[5] = system: SW-620 colon
[6] = system: HCC-2998 colon
[7] = system: SN12C renal
[8] = system: MDA-MB-231 breast
[9] = system: SNB-75 CNS
[10] = system: A549 NSCLC
[11] = system: 786-0 renal
[12] = system: OVCAR-3 ovarian
[13] = system: UACC-62 melanoma
[14] = system: LOX IMVI melanoma
[15] = system: K-562 leukemia
[16] = system: DU-145 prostate
[17] = system: KM12 colon
[18] = system: HOP-62 NSCLC
[19] = system: UO-31 renal
[20] = system: OVCAR-8 ovarian
[21] = system: HCT-116 colon
[22] = system: OVCAR-4 ovarian
[23] = system: A498 renal
[24] = system: RPMI-8226 leukemia
[25] = system: SK-MEL-2 melanoma
[26] = system: HT29 colon
[27] = system: CCRF-CEM leukemia
[28] = system: COLO 205 colon
[29] = system: IGROV1 ovarian
[30] = system: U251 CNS
[31] = system: HS 578T breast
[32] = system: MOLT-4 leukemia
[33] = system: MDA-MB-435
[34] = system: M14 melanoma
[35] = system: SF-539 CNS
[36] = system: HL-60(TB) leukemia
[37] = system: NCI/ADR-RES ovarian
[38] = system: NCI-H226 lung
[39] = system: SNB-19 CNS
[40] = system: CAKI-1 renal
[41] = system: SK-MEL-5 melanoma
[42] = system: NCI-H460 lung
[43] = system: PC-3 prostate
[44] = system: SF-295 CNS
[45] = system: SK-OV-3 ovarian
[46] = system: UACC-257 melanoma
[47] = system: SK-MEL-28 melanoma
[48] = system: BT-549 breast
[49] = system: HCT-15 colon
[50] = system: NCI-H522 lung
[51] = system: MCF7 breast
[52] = system: RXF 393 renal
[53] = system: HOP-92 NSCLC
[54] = system: TK-10 renal
[55] = system: T-47D breast

In the case of Cc1ccccc1[P+](Cc1ccccc1)(c1ccccc1)c1ccccc1, the GI50 [1] is reported as 8.3 µM, the TGI [1] is reported as > 100 µM and the GI50 [2] is reported as 1.6 µM. The TGI [2] was 15.7 µM, the GI50 [3] was 3.44 µM and the TGI [3] was > 100 µM. The GI50 [4] was 2.46 µM, the TGI [4] was > 100 µM and the GI50 [5] was 2.62 µM. It also gave a TGI [5] of 33.3 µM, a GI50 [6] of 2.06 µM and a TGI [6] of 23.2 µM. It also gave a GI50 [7] of 2.85 µM, a TGI [7] of 90.3 µM and a GI50 [8] of 2.06 µM. For the same compound, the TGI [8] was 28 µM, the GI50 [9] was 2.14 µM and the TGI [9] was 20.2 µM. The GI50 [10] was 3.07 µM, the TGI [10] was > 100 µM and the GI50 [11] was 4.81 µM. The TGI [11] was > 100 µM, the GI50 [12] was 1.42 µM and the TGI [12] was > 100 µM. For the same compound, the GI50 [13] was 1.36 µM, the TGI [13] was 11.9 µM and the GI50 [14] was 2.27 µM. The TGI [14] was 15.3 µM, the GI50 [15] was 1.08 µM and the TGI [15] was > 100 µM. For the same compound, the GI50 [16] was 3.69 µM, the TGI [16] was > 100 µM and the GI50 [17] was 1.12 µM. For the same compound, the TGI [17] was 15.1 µM, the GI50 [18] was 4.34 µM and the TGI [18] was > 100 µM. It also gave a GI50 [19] of 14.2 µM, a TGI [19] of 69.2 µM and a GI50 [20] of 1.92 µM. The TGI [20] was 13.2 µM, the GI50 [21] was 1.92 µM and the TGI [21] was > 100 µM. The GI50 [22] was 1.91 µM, the TGI [22] was > 100 µM and the GI50 [23] was 1.46 µM. For the same compound, the TGI [23] was 7.2 µM, the GI50 [24] was 0.603 µM and the TGI [24] was 6.34 µM. It also gave a GI50 [25] of 2.67 µM, a TGI [25] of 6.65 µM and a GI50 [26] of 1.79 µM. For the same compound, the TGI [26] was 29 µM, the GI50 [27] was 2.1 µM and the TGI [27] was 33.5 µM. For the same compound, the GI50 [28] was 1.51 µM, the TGI [28] was 4 µM and the GI50 [29] was 1.8 µM. The TGI [29] was 32.1 µM, the GI50 [30] was 1.99 µM and the TGI [30] was 35.2 µM. For the same compound, the GI50 [31] was 1.83 µM, the TGI [31] was 11.7 µM and the GI50 [32] was 3.58 µM. For the same compound, the TGI [32] was 17.6 µM, the GI50 [33] was 0.601 µM and the TGI [33] was 3.71 µM. It also gave a GI50 [34] of 2.51 µM, a TGI [34] of 12.6 µM and a GI50 [35] of 2.34 µM. It also gave a TGI [35] of 24.7 µM, a GI50 [36] of 1.23 µM and a TGI [36] of 4.04 µM. The GI50 [37] was > 100 µM, the TGI [37] was > 100 µM and the GI50 [38] was 2.35 µM. For the same compound, the TGI [38] was > 100 µM, the GI50 [39] was 2.8 µM and the TGI [39] was > 100 µM. For the same compound, the GI50 [40] was 12.1 µM, the TGI [40] was > 100 µM and the GI50 [41] was 0.863 µM. It also gave a TGI [41] of 2.29 µM, a GI50 [42] of 2.23 µM and a TGI [42] of 10.7 µM. For the same compound, the GI50 [43] was 1.45 µM, the TGI [43] was > 100 µM and the GI50 [44] was 1.75 µM. For the same compound, the TGI [44] was 5.28 µM, the GI50 [45] was 5.28 µM and the TGI [45] was > 100 µM. For the same compound, the GI50 [46] was 0.623 µM, the TGI [46] was 4.23 µM and the GI50 [47] was 2.91 µM. It also gave a TGI [47] of 37.9 µM, a GI50 [48] of 2.4 µM and a TGI [48] of 11.5 µM. For the same compound, the GI50 [49] was 23.5 µM, the TGI [49] was > 100 µM and the GI50 [50] was 2.09 µM. For the same compound, the TGI [50] was 10.5 µM, the GI50 [51] was 0.89 µM and the TGI [51] was > 100 µM. The GI50 [52] was 4.35 µM and the TGI [52] was 51.8 µM.

N#Cc1cccc(CSc2ncnc3nc[nH]c23)c1 was tested, and the GI50 [2] was 38.9 µM, the GI50 [7] was 91 µM and the GI50 [9] was 23.7 µM. The TGI [9] was 87.7 µM, the GI50 [13] was 75.7 µM and the GI50 [53] was 16.5 µM. It also gave a TGI [53] of 97.5 µM, a GI50 [15] of 38.2 µM and a GI50 [16] of 73.6 µM. The GI50 [19] was 71.9 µM, the GI50 [24] was 40.4 µM and the GI50 [27] was 61.8 µM. For the same compound, the GI50 [31] was 64.2 µM, the GI50 [32] was 85.2 µM and the GI50 [33] was 89.8 µM. The GI50 [37] was 27.6 µM, the TGI [37] was 80.8 µM and the GI50 [41] was 89.5 µM. The GI50 [54] was 99.2 µM, the GI50 [42] was 74 µM and the GI50 [55] was 56 µM. It also gave a GI50 [52] of 32.8 µM.
